{"source": "patent US6399377B1", "about": "“Use of anti-sense sequences to increase responsiveness to gene amplification” (priority 1999, dated 2002)", "test_system": "SBP13-30 CHO cells", "assay": "Acquired sensitivity to MTX of plasmid-transfected cells, crystal violet staining", "type": "cell-based, chinese hamster", "details": "9 μM MTX, 0 μg DNA (non-transfected cells)", "experimental": "In order to assess the level of expression of the anti-sense DHFR sequence and whether its expression effectively blocks DHFR+ expression i.e. renders the cells more responsive/sensitive to MTX treatment, SBP13-30 CHO cells subjected to transfections with three different plasmid concentrations of adHFR2/Neo 0 (control), 100 and 500 μg plasmid DNA, were grown in the absence (controls) or in the presence of MTX (9 μM). Equal amounts of cells from each of the transfections were plated onto duplicate sets of Petri dishes containing standard CHO culture medium, one set receiving cells treated with MTX and the other set receiving untreated cells. When the cells in the dishes without MTX approached confluent growth, the experiment was terminated and the surviving cells were visualized by staining with crystal violet.\nAs expected, with 0 μM MTX, heavy staining was observed. The staining was moderate-to-heavy in the 9 μM MTX/0 μg DNA dish. […] Cells transfected with high amounts of plasmid (500 μg plasmid DNA/dish) are more sensitive to MTX than cells transfected with lower amounts of plasmid (100 μg plasmid DNA/dish) or the non-transfected control cells (0 μg plasmid/dish). Thus, it is clear that the anti-sense DHFR plasmid successfully transfected the CHO cells and was expressed in these cells. […] In other words, the greater the DHFR^+ inhibition, the greater the MTX toxicity.", "data": [{"smiles": "CN(Cc1cnc2nc(N)nc(N)c2n1)c1ccc(C(=O)N[C@@H](CCC(=O)O)C(=O)O)cc1", "note": "[MTX, methotrexate]", "values": [{"measurement": "crystal violet staining of surviving cells", "result": "moderate-to-heavy"}]}]}
